ChEMBL document CHEMBL5335828, “Sacculatane Diterpenoids from the Liverwort Plagiochila nitens Collected in China” (J Nat Prod, 2024)
Values after ≈ are worked out from the molar mass of the structure shown.

System: not listed separately
Assay: Cytotoxicity against mouse Hepa1c1c7 cells incubated for 24 hrs by MTT assay
Type: functional, cell-based
Details: Hepa-1c1c7, 24 h

**Q.** For `C=C1CC[C@H]2[C@](C)(CC[C@H](OC(C)=O)C(C)(C)O)[C@@H](OC(C)=O)CC[C@]2(CO)[C@H]1CO`, which IC50 is on record?
**A.** > 50 µM

**Q.** With `C=C1CC[C@H]2[C@](C)(CC[C@H](O)C(C)(C)O)CCC[C@]2(COC(C)=O)[C@H]1CO` as the molecule, how does the IC50 read?
**A.** > 50 µM

**Q.** With `C=C1CC[C@H]2[C@](C)(CC[C@H](O)C(C)(C)O)CCC[C@]2(CO)[C@H]1CO` as the molecule, how does the IC50 read?
**A.** > 50 µM

**Q.** Which IC50 does the source give for `COC(=O)C1=CO[C@H]2OC(=O)[C@H]3[C@H]2[C@H]1[C@@H]1[C@H](C[C@H]3OC(C)=O)C1(C)C` here?
**A.** > 50 µM

**Q.** With `C=C1CC[C@H]2[C@](C)(CC[C@H](O)C(C)(C)O)[C@@H](OC(C)=O)CC[C@]2(CO)[C@H]1CO` as the molecule, how does the IC50 read?
**A.** > 50 µM

**Q.** With `C=C1C[C@H](O)[C@@H]2C3(CCC[C@@]2(C)CCC=C(C)C)[C@H](O)OC[C@@H]13` (some centres undefined) as the molecule, how does the IC50 read?
**A.** > 50 µM

**Q.** With `CC(=O)O[C@H]1CC[C@@]23CO[C@](C)(CC[C@H]2[C@]1(C)CC[C@H](O)C(C)(C)O)[C@@H]3CO` as the molecule, how does the IC50 read?
**A.** > 50 µM

**Q.** Which IC50 does the source give for `C=C1CC[C@H]2[C@](C)(CC[C@H](OC(C)=O)C(C)(C)O)CCC[C@]2(CO)[C@H]1CO` here?
**A.** > 50 µM

System: Candida albicans
Assay: Antifungal activity against Candida albicans DSY654 harboring CDR1-CDR2 double mutant assessed as inhibition of fungal growth incubated for 24 hrs by alamar blue assay
Type: functional
Details: not given

**Q.** Which MIC does the source give for `COC(=O)C1=CO[C@H]2OC(=O)[C@H]3[C@H]2[C@H]1[C@@H]1[C@H](C[C@H]3OC(C)=O)C1(C)C` here?
**A.** 16 µg/mL (≈ 45.7 µM)
